Reference: patent US6518243B1, “Desleucyl glycopeptide antibiotics and methods of making same” (Trustees of Princeton University, priority 1999, dated 2003)

Legend:
Experiment in all cases: Zone of inhibition screen, 96 well agar array format
Format in all cases: cell-based
Parameters in all cases: scale not given here
[1] = system: S. aureus (ATCC 29213)
Method in brief: (§1)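 Antibacterial testing on a 96-well agar array; each compound screened separately.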

[2] = system: S. epidermidis (ATCC 12228)
Method in brief: as §1

[3] = system: E. faecalis (CL 4877)
Method in brief: as §1

[4] = zone of inhibition relative to 1 mg/ml stock solution of p-chlorobiphenylvancomycin
[5] = zone of inhibition relative to 1 mg/ml p-chlorobiphenylvancomycin

CC1OC(OC2C(Oc3c4cc5cc3Oc3ccc(cc3Cl)C(O)C3NC(=O)C(NC(=O)C5NC(=O)C(CC(N)=O)NC(=O)C(NC(=O)CCCN)C(O)c5ccc(c(Cl)c5)O4)c4ccc(O)c(c4)-c4c(O)cc(O)cc4C(C(=O)O)NC3=O)OC(CO)C(O)C2O)CC(C)(NCc2ccc(-c3ccc(Cl)cc3)cc2)C1O (stereo not drawn) [Compound 65]
2: zone score, S. aureus ATCC 29213 [1, 4] | zone score, S. epidermidis ATCC 12228 [2, 4] | zone score, E. faecalis CL 4877 [3, 4]

COc1cc(OC)c(CNC(=O)CCC(N)C(=O)NC2C(=O)NC(CC(N)=O)C(=O)NC3C(=O)NC4C(=O)NC(C(=O)NC(C(=O)O)c5cc(O)cc(O)c5-c5cc4ccc5O)C(O)c4ccc(c(Cl)c4)Oc4cc3cc(c4OC3OC(CO)C(O)C(O)C3OC3CC(C)(NCc4ccc(-c5ccc(Cl)cc5)cc4)C(O)C(C)O3)Oc3ccc(cc3Cl)C2O)c(OC)c1 (stereo not drawn) [Compound 66]
2: zone score, S. aureus ATCC 29213 [1, 4] | zone score, S. epidermidis ATCC 12228 [2, 4] | zone score, E. faecalis CL 4877 [3, 4]

CC1OC(OC2C(Oc3c4cc5cc3Oc3ccc(cc3Cl)C(O)C(NC(=O)C3CCCN3C(=O)C3CCCN3)C(=O)NC(CC(N)=O)C(=O)NC5C(=O)NC3C(=O)NC(C(=O)NC(C(=O)O)c5cc(O)cc(O)c5-c5cc3ccc5O)C(O)c3ccc(c(Cl)c3)O4)OC(CO)C(O)C2O)CC(C)(NCc2ccc(-c3ccc(Cl)cc3)cc2)C1O (stereo not drawn) [Compound 86]
2: zone score, S. aureus ATCC 29213 [1, 4] | zone score, S. epidermidis ATCC 12228 [2, 4] | zone score, E. faecalis CL 4877 [3, 4]

CC(=O)OCC(N)C(=O)NC1C(=O)NC(CC(N)=O)C(=O)NC2C(=O)NC3C(=O)NC(C(=O)NC(C(=O)O)c4cc(O)cc(O)c4-c4cc3ccc4O)C(O)c3ccc(c(Cl)c3)Oc3cc2cc(c3OC2OC(CO)C(O)C(O)C2OC2CC(C)(NCc3ccc(-c4ccc(Cl)cc4)cc3)C(O)C(C)O2)Oc2ccc(cc2Cl)C1O (stereo not drawn) [Compound 87]
2: zone score, S. aureus ATCC 29213 [1, 4] | zone score, S. epidermidis ATCC 12228 [2, 4] | zone score, E. faecalis CL 4877 [3, 4]

CC1OC(OC2C(Oc3c4cc5cc3Oc3ccc(cc3Cl)C(O)C3NC(=O)C(NC(=O)C5NC(=O)C(CC(N)=O)NC(=O)C(NC(=O)CC[S+](C)C)C(O)c5ccc(c(Cl)c5)O4)c4ccc(O)c(c4)-c4c(O)cc(O)cc4C(C(=O)O)NC3=O)OC(CO)C(O)C2O)CC(C)(NCc2ccc(-c3ccc(Cl)cc3)cc2)C1O (stereo not drawn) [Compound 94]
2: zone score, S. aureus ATCC 29213 [1, 4] | zone score, S. epidermidis ATCC 12228 [2, 4] | zone score, E. faecalis CL 4877 [3, 4]

CC1OC(OC2C(Oc3c4cc5cc3Oc3ccc(cc3Cl)C(O)C3NC(=O)C(NC(=O)C5NC(=O)C(CC(N)=O)NC(=O)C(NC(=O)CCO)C(O)c5ccc(c(Cl)c5)O4)c4ccc(O)c(c4)-c4c(O)cc(O)cc4C(C(=O)O)NC3=O)OC(CO)C(O)C2O)CC(C)(NCc2ccc(-c3ccc(Cl)cc3)cc2)C1O (stereo not drawn) [Compound 106]
2: zone score, S. aureus ATCC 29213 [1, 4] | zone score, S. epidermidis ATCC 12228 [2, 4] | zone score, E. faecalis CL 4877 [3, 4]

CC(=O)N1CCCC1C(=O)NC1C(=O)NC(CC(N)=O)C(=O)NC2C(=O)NC3C(=O)NC(C(=O)NC(C(=O)O)c4cc(O)cc(O)c4-c4cc3ccc4O)C(O)c3ccc(c(Cl)c3)Oc3cc2cc(c3OC2OC(CO)C(O)C(O)C2OC2CC(C)(NCc3ccc(-c4ccc(Cl)cc4)cc3)C(O)C(C)O2)Oc2ccc(cc2Cl)C1O (stereo not drawn) [Compound 116]
2: zone score, S. aureus ATCC 29213 [1, 4] | zone score, S. epidermidis ATCC 12228 [2, 4] | zone score, E. faecalis CL 4877 [3, 4]

CC(=O)OC(CC(=O)NC1C(=O)NC(CC(N)=O)C(=O)NC2C(=O)NC3C(=O)NC(C(=O)NC(C(=O)O)c4cc(O)cc(O)c4-c4cc3ccc4O)C(O)c3ccc(c(Cl)c3)Oc3cc2cc(c3OC2OC(CO)C(O)C(O)C2OC2CC(C)(NCc3ccc(-c4ccc(Cl)cc4)cc3)C(O)C(C)O2)Oc2ccc(cc2Cl)C1O)C[N+](C)(C)C (stereo not drawn) [Compound 119]
2: zone score, S. aureus ATCC 29213 [1, 4] | zone score, S. epidermidis ATCC 12228 [2, 4] | zone score, E. faecalis CL 4877 [3, 4]

CC(=O)NCC(=O)NCC(=O)NC1C(=O)NC(CC(N)=O)C(=O)NC2C(=O)NC3C(=O)NC(C(=O)NC(C(=O)O)c4cc(O)cc(O)c4-c4cc3ccc4O)C(O)c3ccc(c(Cl)c3)Oc3cc2cc(c3OC2OC(CO)C(O)C(O)C2OC2CC(C)(NCc3ccc(-c4ccc(Cl)cc4)cc3)C(O)C(C)O2)Oc2ccc(cc2Cl)C1O (stereo not drawn) [Compound 120]
2: zone score, S. aureus ATCC 29213 [1, 4] | zone score, S. epidermidis ATCC 12228 [2, 4] | zone score, E. faecalis CL 4877 [3, 4]

CC1OC(OC2C(Oc3c4cc5cc3Oc3ccc(cc3Cl)C(O)C3NC(=O)C(NC(=O)C5NC(=O)C(CC(N)=O)NC(=O)C(NC(=O)CO)C(O)c5ccc(c(Cl)c5)O4)c4ccc(O)c(c4)-c4c(O)cc(O)cc4C(C(=O)O)NC3=O)OC(CO)C(O)C2O)CC(C)(NCc2ccc(-c3ccc(Cl)cc3)cc2)C1O (stereo not drawn) [Compound 158]
2: zone score, S. aureus ATCC 29213 [1, 4] | zone score, S. epidermidis ATCC 12228 [2, 4] | zone score, E. faecalis CL 4877 [3, 4]

CC(=O)N[C@@H](Cc1c[nH]cn1)C(=O)N[C@H]1C(=O)N[C@@H](CC(N)=O)C(=O)N[C@H]2C(=O)NC3C(=O)N[C@H](C(=O)N[C@@H](C(=O)O)c4cc(O)cc(O)c4-c4cc3ccc4O)[C@H](O)c3ccc(c(Cl)c3)Oc3cc2cc(c3OC2OC(CO)C(O)C(O)C2OC2CC(C)(NCc3ccc(-c4ccc(Cl)cc4)cc3)C(O)C(C)O2)Oc2ccc(cc2Cl)[C@H]1O (stereo partly drawn) [Compound 181]
2: zone score, S. aureus ATCC 29213 [1, 4] | zone score, S. epidermidis ATCC 12228 [2, 4] | zone score, E. faecalis CL 4877 [3, 4]

CC(=O)N1CCC[C@H]1C(=O)N[C@H]1C(=O)N[C@@H](CC(N)=O)C(=O)N[C@H]2C(=O)NC3C(=O)N[C@H](C(=O)N[C@@H](C(=O)O)c4cc(O)cc(O)c4-c4cc3ccc4O)[C@H](O)c3ccc(c(Cl)c3)Oc3cc2cc(c3OC2OC(CO)C(O)C(O)C2OC2CC(C)(NCc3ccc(-c4ccc(Cl)cc4)cc3)C(O)C(C)O2)Oc2ccc(cc2Cl)[C@H]1O (stereo partly drawn) [Compound 183]
2: zone score, S. aureus ATCC 29213 [1, 4] | zone score, S. epidermidis ATCC 12228 [2, 4] | zone score, E. faecalis CL 4877 [3, 4]

CC1OC(OC2C(Oc3c4cc5cc3Oc3ccc(cc3Cl)C(O)C3NC(=O)C(NC(=O)C5NC(=O)C(CC(N)=O)NC(=O)C(NC(=O)C(Cc5c[nH]cn5)NC=O)C(O)c5ccc(c(Cl)c5)O4)c4ccc(O)c(c4)-c4c(O)cc(O)cc4C(C(=O)O)NC3=O)OC(CO)C(O)C2O)CC(C)(NCc2ccc(-c3ccc(Cl)cc3)cc2)C1O (stereo not drawn) [Compound 195]
2: zone score, S. aureus ATCC 29213 [1, 4] | zone score, S. epidermidis ATCC 12228 [2, 4] | zone score, E. faecalis CL 4877 [3, 4]

CC1OC(OC2C(Oc3c4cc5cc3Oc3ccc(cc3Cl)C(O)C3NC(=O)C(NC(=O)C5NC(=O)C(CC(N)=O)NC(=O)C(NC(=O)CCC(N)=O)C(O)c5ccc(c(Cl)c5)O4)c4ccc(O)c(c4)-c4c(O)cc(O)cc4C(C(=O)O)NC3=O)OC(CO)C(O)C2O)CC(C)(NCc2ccc(-c3ccc(Cl)cc3)cc2)C1O (stereo not drawn) [Compound 202]
2: zone score, S. aureus ATCC 29213 [1, 4] | zone score, S. epidermidis ATCC 12228 [2, 4] | zone score, E. faecalis CL 4877 [3, 4]

CC(NC(=O)OCc1ccccc1)C(=O)NCC(=O)NCC(=O)NC1C(=O)NC(CC(N)=O)C(=O)NC2C(=O)NC3C(=O)NC(C(=O)NC(C(=O)O)c4cc(O)cc(O)c4-c4cc3ccc4O)C(O)c3ccc(c(Cl)c3)Oc3cc2cc(c3OC2OC(CO)C(O)C(O)C2OC2CC(C)(NCc3ccc(-c4ccc(Cl)cc4)cc3)C(O)C(C)O2)Oc2ccc(cc2Cl)C1O (stereo not drawn) [Compound 209]
2: zone score, S. aureus ATCC 29213 [1, 5] | zone score, S. epidermidis ATCC 12228 [2, 5] | zone score, E. faecalis CL 4877 [3, 5]

CC1OC(OC2C(Oc3c4cc5cc3Oc3ccc(cc3Cl)C(O)C3NC(=O)C(NC(=O)C5NC(=O)C(CC(N)=O)NC(=O)C(NC(=O)CNC(=O)CNC(=O)CCNC(=O)OCc5ccccc5)C(O)c5ccc(c(Cl)c5)O4)c4ccc(O)c(c4)-c4c(O)cc(O)cc4C(C(=O)O)NC3=O)OC(CO)C(O)C2O)CC(C)(NCc2ccc(-c3ccc(Cl)cc3)cc2)C1O (stereo not drawn) [Compound 210]
2: zone score, S. aureus ATCC 29213 [1, 5] | zone score, S. epidermidis ATCC 12228 [2, 5] | zone score, E. faecalis CL 4877 [3, 5]

CC1OC(OC2C(Oc3c4cc5cc3Oc3ccc(cc3Cl)C(O)C3NC(=O)C(NC(=O)C5NC(=O)C(CC(N)=O)NC(=O)C(NC(=O)CNC(=O)C(CCC(N)=O)NC(=O)OCc5ccccc5)C(O)c5ccc(c(Cl)c5)O4)c4ccc(O)c(c4)-c4c(O)cc(O)cc4C(C(=O)O)NC3=O)OC(CO)C(O)C2O)CC(C)(NCc2ccc(-c3ccc(Cl)cc3)cc2)C1O (stereo not drawn) [Compound 211]
2: zone score, S. aureus ATCC 29213 [1, 5] | zone score, S. epidermidis ATCC 12228 [2, 5] | zone score, E. faecalis CL 4877 [3, 5]

CC1OC(OC2C(Oc3c4cc5cc3Oc3ccc(cc3Cl)C(O)C3NC(=O)C(NC(=O)C5NC(=O)C(CC(N)=O)NC(=O)C(NC(=O)C(CCC(N)=O)NC(=O)CNC(=O)OCc5ccccc5)C(O)c5ccc(c(Cl)c5)O4)c4ccc(O)c(c4)-c4c(O)cc(O)cc4C(C(=O)O)NC3=O)OC(CO)C(O)C2O)CC(C)(NCc2ccc(-c3ccc(Cl)cc3)cc2)C1O (stereo not drawn) [Compound 212]
2: zone score, S. aureus ATCC 29213 [1, 5] | zone score, S. epidermidis ATCC 12228 [2, 5] | zone score, E. faecalis CL 4877 [3, 5]

CC(NC(=O)CNC(=O)CNC(=O)OCc1ccccc1)C(=O)NC1C(=O)NC(CC(N)=O)C(=O)NC2C(=O)NC3C(=O)NC(C(=O)NC(C(=O)O)c4cc(O)cc(O)c4-c4cc3ccc4O)C(O)c3ccc(c(Cl)c3)Oc3cc2cc(c3OC2OC(CO)C(O)C(O)C2OC2CC(C)(NCc3ccc(-c4ccc(Cl)cc4)cc3)C(O)C(C)O2)Oc2ccc(cc2Cl)C1O (stereo not drawn) [Compound 213]
2: zone score, S. aureus ATCC 29213 [1, 5] | zone score, S. epidermidis ATCC 12228 [2, 5] | zone score, E. faecalis CL 4877 [3, 5]
